Results on four compounds are retold here after the supplement of paper PMC11451515.

Experiment in all cases: AUC of viability dose-response curve (% viability x log10 dose units); higher = less sensitive
What all share (conditions): 48 h

The test system of one test is NOMO1. In a few lines:
(§1)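 Library compounds in DMSO were applied for 48 h at 37°C at 11 threefold doses (47 μM to 0.79 nM) to medium-adapted leukemia cells in 1536-well plates holding 500 or 1000 cells/well. Luminescence from CellTiter-Glo One was normalised plate by plate against DMSO and cell-free wells. Area under the curve came from trapezoidal integration of a log-logistic fit, after scaling curves that rose above full viability and discarding those that failed quality control. The fit had four parameters and used log10 doses.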

In another test the test system is P12-Ichikawa. In a few lines: as §1
For another test, the system named is SEM cells. In a few lines:
as §1

Where [1] appears, read: RPMI 5 mM glucose + 10% dialyzed FBS.

Take `CC(C)(C)[C@]1(O)C[C@@H]2OC(=O)C[C@@]23C(=O)O[C@@H]2OC(=O)[C@H](O)C213` (stereo partly specified): the “AUC of viability dose-response curve” value in the test on NOMO1 (HPLM + 10% dialyzed FBS) was 452; in the test with NOMO1 (RPMI 5 mM glucose + 10% FBS), 436; with NOMO1 (setting [1]), 452; with P12-Ichikawa (HPLM + 10% dialyzed FBS), 447; with P12-Ichikawa (RPMI 5 mM glucose + 10% FBS) it was 458; with P12-Ichikawa (setting [1]) it was 452. Moreover, the figures for the “AUC of viability dose-response curve” value in the test with SEM cells (HPLM + 10% dialyzed FBS), in the test with SEM cells (RPMI 5 mM glucose + 10% FBS) and in the test with SEM cells (setting [1]) were 471, 444 and 436, respectively.

As to `Cc1n[nH]c2ccc(-c3cncc(OC[C@@H](N)Cc4ccccc4)c3)cc12`, the “AUC of viability dose-response curve” value in the test with NOMO1 (HPLM + 10% dialyzed FBS) stood at 324; with NOMO1 (RPMI 5 mM glucose + 10% FBS), 365; in the test with NOMO1 (setting [1]), 348; with P12-Ichikawa (HPLM + 10% dialyzed FBS), 371; in the test on P12-Ichikawa (RPMI 5 mM glucose + 10% FBS), 335; in the test on P12-Ichikawa (setting [1]), 355. Further, the “AUC of viability dose-response curve” value amounted to 312 in the test with SEM cells (HPLM + 10% dialyzed FBS), 341 in the test with SEM cells (RPMI 5 mM glucose + 10% FBS) and 347 in the test with SEM cells (setting [1]).

On to `CC(C)[C@H](C(=O)Nc1ccc(C(=O)NO)cc1)c1ccccc1`, for which the “AUC of viability dose-response curve” value worked out at 361 with NOMO1 (HPLM + 10% dialyzed FBS); 368 in the test with NOMO1 (RPMI 5 mM glucose + 10% FBS); 364 in the test with NOMO1 (setting [1]); 351 in the test on P12-Ichikawa (HPLM + 10% dialyzed FBS); 346 in the test on P12-Ichikawa (RPMI 5 mM glucose + 10% FBS); 350 in the test on P12-Ichikawa (setting [1]). For the same compound, the results for the “AUC of viability dose-response curve” value in the test on SEM cells (HPLM + 10% dialyzed FBS), in the test on SEM cells (RPMI 5 mM glucose + 10% FBS) and in the test on SEM cells (setting [1]) were 340, 346 and 342, respectively.

As to `Nc1cc(N2CCCCC2)nc(N)[n+]1[O-]`, the “AUC of viability dose-response curve” value in the test on NOMO1 (HPLM + 10% dialyzed FBS) was found to be 451; in the test on NOMO1 (RPMI 5 mM glucose + 10% FBS), 461; with NOMO1 (setting [1]) it was 465; in the test on P12-Ichikawa (HPLM + 10% dialyzed FBS), 469; in the test with P12-Ichikawa (RPMI 5 mM glucose + 10% FBS), 468; in the test on P12-Ichikawa (setting [1]) it was 475. Moreover, the “AUC of viability dose-response curve” value with SEM cells (HPLM + 10% dialyzed FBS) worked out at 451; in the test with SEM cells (RPMI 5 mM glucose + 10% FBS), 451; in the test with SEM cells (setting [1]), 455.
